A short description of the data set: Determination of pharmacokinetic parameters following intravenous and oral administration. Format: in vivo, rat. The conditions noted are these: rats, intravenous administration of 0.3 mg/kg and peroral administration of 1 mg/kg. As for the experimental part:
The pharmacokinetic parameters of the compounds of the formula (I) according to the invention are determined in male CD-1 mice, male Wistar rats and female beagles. Intravenous administration is via a formulation of species-specific plasma/DMSO in the case of mice and rats and via a water/PEG400/ethanol formulation in the case of dogs. For all species, oral administration of the dissolved substance via gavage is carried out based on a water/PEG400/ethanol formulation. The removal of blood from rats is simplified by inserting a silicone catheter into the right Vena jugularis externa prior to substance administration. The surgical intervention takes place at least one day prior to the experiment with isofluran anesthesia and administration of an analgetic (atropine/rimadyl (3/1) 0.1 ml s.c.). The removal of blood (generally more than 10 times) takes place in a time window which contains terminal times of at least 24 to a maximum of 72 hours after administration of the substance. The blood is removed into heparinized tubes. The blood plasma is then obtained by centrifugation; if required, it can be stored at −20° C. until further processing.
An internal standard (this can also be a chemically unrelated substance) is added to the samples of the compounds of the formula (I) according to the invention, calibration samples and qualifiers, and the protein is precipitated using excess acetonitrile. After addition of a buffer solution, which is adapted to the LC conditions, and subsequent vortexing, the mixture is centrifuged at 1000 g. The supernatant is examined by LC-MS/MS using C18-reversed-phase columns and variable mobile phase mixtures. The substances are quantified by peak heights or areas using extracted ion chromatograms of specific selected ion monitoring experiments.
The plasma concentration/time plots determined are used to calculate the pharmacokinetic parameters such as AUC (Area Under the Curve), Cmax, t1/2 (terminal half life), F (bioavailability), MRT (mean residence time) and CL (clearance), using a validated pharmacokinetic calculation program.
Since the substance quantification is performed in plasma, it is necessary to determine the blood/plasma distribution of the substance in order to be able to adjust the pharmacokinetic parameters correspondingly. For this purpose, a defined amount of substance is incubated in heparinized whole blood of the species in question in a rocking roller mixer for 20 min. After centrifugation at 1000 g, the plasma concentration is measured (by means of LC-MS/MS; see above) and determined by calculating the quotient of the Cblood/Cplasma values.

Broadly, the MRT is the average time that molecules of a dose stay in the body. A word on the half-life: it is the time needed for the level to fall by half in the phase considered. Lower therefore signals fast loss.

Compound `CC1(C(F)(F)F)C(=O)Nc2nc(-c3nn(Cc4ccccc4F)c4ncc(F)cc34)nc(NCCC(F)(F)F)c21` (single isomer, unassigned) [Example 1-1, 2-[5-Fluoro-1-(2-fluorobenzyl)-1H-pyrazolo[3,4-b]pyridin-3-yl]-5-methyl-5-(trifluoromethyl)-4-[(3,3,3-trifluoropropyl)amino]-5,7-dihydro-6H-pyrrolo[2,3-d]pyrimidin-6-one] gave an AUCnorm of 0.83 kg·h/L, a CLblood of 23.7 mL/min/kg and an F of 39.0%. Under “male, Wistar, rat, plasma”, this compound had an MRT of 6.4 h and a half-life of 7.8 h.

The values are drawn from patent publication US20160002267A1, “BENZYL-SUBSTITUTED PYRAZOLOPYRIDINES AND USE THEREOF” (BAYER PHARMA AKTIENGESELLSCHAFT, priority 2013, published 2016).
